Values quoted from earlier work as cited in patent US20180008711A1, “TRIPLE ANTIBIOTIC CATIONIC OINTMENT” (priority 2015, published 2018).

Key:
bacteria = conditions: very low concentrations
[1] = test system: Staphylococcus aureus (also the methicillin-resistant type, MRSA)
[2] = test system: Aspergillus brasiliensis (mold)
[3] = test system: vancomycin-resistant enterococci
[4] = test system: Klebsiella pneumoniae (carbapenem-resistant enterobacteriaceae)

| Substance | bactericidal concentration (bacteria) | fungicidal (fungi) | effective against Pseudomonas aeruginosa (Pseudomonas aeruginosa) | effective against Staphylococcus aureus [1] | effective against Escherichia coli (Escherichia coli) | effective against Candida albicans (Candida albicans (yeast)) | effective against Aspergillus brasiliensis [2] | effective against vancomycin-resistant enterococci [3] | effective against Klebsiella pneumoniae [4] |
| --- | --- | --- | --- | --- | --- | --- | --- | --- | --- |
| Polyaminopropylbiguanide [PAPB] | 10 mg/1 | fungicidal |  |  |  |  |  |  |  |
| polyhexamethylenebiguanide [PHMB] |  |  | effective | effective | effective | effective | effective | effective | effective |
